Laboratory results published in ChEMBL document CHEMBL1201862, “PubChem BioAssay data set” (2004).
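How tested: cells in 96-well plates exposed to compound for 48 hours at five concentrations. GI50 marks 50% less growth.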 The source made the active and inactive calls. Cut-off read from the data, not from the text of the source: active = GI50 up to about 1.1 µM and inactive = higher.

What was measured:
Experiment in all cases: DTP human tumour cell line panel, 48 h
[1] = tested on: A549
[2] = tested on: ACHN
[3] = tested on: CCRF-CEM
[4] = tested on: HT-29
[5] = tested on: KM12
[6] = tested on: M14
[7] = tested on: MCF7
[8] = tested on: MDA-N
[9] = tested on: Malme-3M
[10] = tested on: NCI-H23
[11] = tested on: SK-MEL-5
[12] = tested on: SN12C
[13] = tested on: U-251
[14] = tested on: UO-31
[15] = tested on: A498
[16] = tested on: HOP-92
[17] = tested on: NCI-H522
[18] = tested on: SF-268
[19] = tested on: SW-620
[20] = tested on: T47D

| Structure (SMILES) | GI50 [1] | GI50 [2] | GI50 [3] | GI50 [4] | GI50 [5] | GI50 [6] | GI50 [7] | GI50 [8] | GI50 [9] | GI50 [10] | GI50 [11] | GI50 [12] | GI50 [13] | GI50 [14] | GI50 [15] | GI50 [16] | GI50 [17] | GI50 [18] | GI50 [19] | GI50 [20] |
| --- | --- | --- | --- | --- | --- | --- | --- | --- | --- | --- | --- | --- | --- | --- | --- | --- | --- | --- | --- | --- |
| Cc1ccc2ccccc2c1CC1S(=O)(=O)OCCOS1(=O)=O | 13.5 µM (inactive) | 14.4 µM (inactive) | 6.31 µM (inactive) | 11.4 µM (inactive) | 12.1 µM (inactive) | 12.9 µM (inactive) | 7.69 µM (inactive) | 9.48 µM (inactive) | 11.5 µM (inactive) | 16 µM (inactive) | 12.8 µM (inactive) | 10.1 µM (inactive) | 12 µM (inactive) | 14.1 µM (inactive) | – | – | – | – | – | – |
| O=C(O)CN(CC(=O)O)Cc1cc(C#Cc2ccc(C#Cc3ccccc3)cc2)cc(CN(CC(=O)O)CC(=O)O)n1 | 29.1 µM (inactive) | 32 µM (inactive) | 29.4 µM (inactive) | 12.9 µM (inactive) | 16.8 µM (inactive) | 22.9 µM (inactive) | 16.5 µM (inactive) | 35.6 µM (inactive) | 31 µM (inactive) | 32.7 µM (inactive) | 27.3 µM (inactive) | 19.7 µM (inactive) | 5.11 µM (inactive) | 5.68 µM (inactive) | 40.6 µM (inactive) | 22.9 µM (inactive) | 17.2 µM (inactive) | 12.2 µM (inactive) | 15.7 µM (inactive) | – |
| CC1(C)N=C2C(=O)c3c([nH]c4ccccc34)[C@]3(C)CCC1CC23 (stereo not given in full) | > 6.25 µM (inactive) | > 6.25 µM (inactive) | > 6.25 µM (inactive) | > 6.25 µM (inactive) | > 6.25 µM (inactive) | – | > 6.25 µM (inactive) | > 6.25 µM (inactive) | > 6.25 µM (inactive) | > 6.25 µM (inactive) | > 6.25 µM (inactive) | > 6.25 µM (inactive) | > 6.25 µM (inactive) | > 6.25 µM (inactive) | > 6.25 µM (inactive) | > 6.25 µM (inactive) | > 6.25 µM (inactive) | > 6.25 µM (inactive) | > 6.25 µM (inactive) | – |
| C/C=C/C/C=C/CCC(=O)C1OC1C(N)=O (stereo not given) | 20.7 µM (inactive) | 15.2 µM (inactive) | 11.4 µM (inactive) | 17.3 µM (inactive) | 15.3 µM (inactive) | 15.8 µM (inactive) | 14.5 µM (inactive) | – | 17.8 µM (inactive) | 14.9 µM (inactive) | 15 µM (inactive) | 19 µM (inactive) | 16.8 µM (inactive) | 11.8 µM (inactive) | – | 16 µM (inactive) | 12.4 µM (inactive) | 12.5 µM (inactive) | 19.8 µM (inactive) | – |
| O=c1[nH]n(Cc2ccccc2CCl)c2ccc([N+](=O)[O-])cc12 | 31.2 µM (inactive) | 55.3 µM (inactive) | 28.7 µM (inactive) | 34.8 µM (inactive) | 49.5 µM (inactive) | 39.2 µM (inactive) | 29.8 µM (inactive) | 62.1 µM (inactive) | 83.4 µM (inactive) | 83 µM (inactive) | 13.4 µM (inactive) | 52.7 µM (inactive) | 42.3 µM (inactive) | 88.3 µM (inactive) | 62.2 µM (inactive) | 34.5 µM (inactive) | 22.9 µM (inactive) | 35.3 µM (inactive) | 49 µM (inactive) | – |
| S=C(N/N=C(/c1ccccc1)c1ccccn1)Nc1ccc(Cl)cc1 | 1.97 µM (inactive) | 0.322 µM (active) | < 0.0155 µM (active) | 0.0998 µM (active) | 1.07 µM (active) | 0.03 µM (active) | 0.0258 µM (active) | 1.09 µM (active) | 0.109 µM (active) | – | 0.403 µM (active) | 0.211 µM (active) | 0.124 µM (active) | 0.543 µM (active) | 3.3 µM (inactive) | 2.11 µM (inactive) | 1.16 µM (inactive) | 0.236 µM (active) | 0.0423 µM (active) | – |
| CC(C)c1ccc(/C=C2\CSCC3=C2N=C(S)NC3c2ccc(C(C)C)cc2)cc1 (stereo not given) | 80.9 µM (inactive) | > 100 µM (inactive) | 35.8 µM (inactive) | 45.1 µM (inactive) | > 100 µM (inactive) | > 100 µM (inactive) | 88.3 µM (inactive) | > 100 µM (inactive) | 36.1 µM (inactive) | 46.5 µM (inactive) | 27.2 µM (inactive) | > 100 µM (inactive) | 85.1 µM (inactive) | 70.6 µM (inactive) | – | 68.5 µM (inactive) | 53.6 µM (inactive) | > 100 µM (inactive) | > 100 µM (inactive) | 80.4 µM (inactive) |
| COC(=O)[C@@](NC(=O)OCc1ccccc1)([C@H](C)O)C(F)(F)F | > 100 µM (inactive) | > 100 µM (inactive) | 57.4 µM (inactive) | > 100 µM (inactive) | > 100 µM (inactive) | > 100 µM (inactive) | – | – | > 100 µM (inactive) | > 100 µM (inactive) | > 100 µM (inactive) | – | > 100 µM (inactive) | > 100 µM (inactive) | > 100 µM (inactive) | > 100 µM (inactive) | > 100 µM (inactive) | > 100 µM (inactive) | > 100 µM (inactive) | > 100 µM (inactive) |
| O=c1c(Cl)cc2nc3ccccc3sc-2c1Cl | 18.7 µM (inactive) | 15.9 µM (inactive) | 4.67 µM (inactive) | 23.2 µM (inactive) | 17.6 µM (inactive) | 11.7 µM (inactive) | 14.4 µM (inactive) | – | 10 µM (inactive) | 11 µM (inactive) | 2.92 µM (inactive) | 17 µM (inactive) | 17.6 µM (inactive) | 15.3 µM (inactive) | 33.9 µM (inactive) | – | 12.4 µM (inactive) | 14.9 µM (inactive) | 12.5 µM (inactive) | 5 µM (inactive) |
| C/C(=N/NC(=S)Nc1cccc(C)c1)c1ccccn1 | 1.87 µM (inactive) | < 0.0481 µM (active) | < 0.01 µM (active) | < 0.01 µM (active) | 0.141 µM (active) | < 0.013 µM (active) | < 0.01 µM (active) | 1.35 µM (inactive) | 0.319 µM (active) | < 0.01 µM (active) | 0.061 µM (active) | 0.226 µM (active) | 0.0208 µM (active) | 0.285 µM (active) | 1.56 µM (inactive) | 1.17 µM (inactive) | 0.238 µM (active) | 0.21 µM (active) | < 0.01 µM (active) | – |
| CC(=O)Nc1ccc(/C=C/C(=O)c2sc(-n3nc(-c4ccccc4)cc3-c3ccccc3)nc2C)cc1 | > 10 µM (inactive) | > 10 µM (inactive) | > 10 µM (inactive) | 84.7 µM (inactive) | 64.9 µM (inactive) | > 10 µM (inactive) | – | – | > 10 µM (inactive) | > 10 µM (inactive) | 95.3 µM (inactive) | > 10 µM (inactive) | > 10 µM (inactive) | > 10 µM (inactive) | > 10 µM (inactive) | > 10 µM (inactive) | 35.9 µM (inactive) | > 10 µM (inactive) | > 10 µM (inactive) | – |
| C/C(CC(O)(/C=N/O)c1ccccc1)=N/O (stereo not given) | > 100 µM (inactive) | > 100 µM (inactive) | > 100 µM (inactive) | > 100 µM (inactive) | > 100 µM (inactive) | > 100 µM (inactive) | > 100 µM (inactive) | > 100 µM (inactive) | > 100 µM (inactive) | > 100 µM (inactive) | > 100 µM (inactive) | > 100 µM (inactive) | > 100 µM (inactive) | > 100 µM (inactive) | – | – | > 100 µM (inactive) | > 100 µM (inactive) | > 100 µM (inactive) | > 100 µM (inactive) |
| C=CCC12CC(=O)CCC1c1ccc(OC)cc1C2=O (stereo not given) | > 100 µM (inactive) | > 100 µM (inactive) | > 100 µM (inactive) | > 100 µM (inactive) | > 100 µM (inactive) | > 100 µM (inactive) | – | – | > 100 µM (inactive) | > 100 µM (inactive) | > 100 µM (inactive) | > 100 µM (inactive) | > 100 µM (inactive) | > 100 µM (inactive) | > 100 µM (inactive) | > 100 µM (inactive) | > 100 µM (inactive) | > 100 µM (inactive) | > 100 µM (inactive) | – |
| CC1(C)COC(c2cccc(C(O)c3ccc(Cl)cc3)c2)=N1 (stereo not given) | > 10 µM (inactive) | 33.7 µM (inactive) | 19 µM (inactive) | 17.7 µM (inactive) | 43.7 µM (inactive) | 19.9 µM (inactive) | 19.6 µM (inactive) | 24.8 µM (inactive) | 25.1 µM (inactive) | 23.9 µM (inactive) | 14.4 µM (inactive) | 26.9 µM (inactive) | 22.6 µM (inactive) | 17.1 µM (inactive) | – | 24.9 µM (inactive) | 31.8 µM (inactive) | 31.1 µM (inactive) | 28.9 µM (inactive) | 36.3 µM (inactive) |
| CC(C)=CC1C(COC(=O)c2ccccc2Cl)C1(C)C (stereo not given) | 36.9 µM (inactive) | 42.8 µM (inactive) | 56.8 µM (inactive) | 29.6 µM (inactive) | 30.4 µM (inactive) | 75 µM (inactive) | – | 29.6 µM (inactive) | 23 µM (inactive) | 31.8 µM (inactive) | 24 µM (inactive) | 32.6 µM (inactive) | 30.1 µM (inactive) | 78.5 µM (inactive) | > 100 µM (inactive) | 28.4 µM (inactive) | 20.4 µM (inactive) | 27.5 µM (inactive) | 51.3 µM (inactive) | 50.6 µM (inactive) |
| COc1cc(C)c(C)c(OC(=O)c2c(C)c(C)c(OC)c(C)c2OC)c1C | 4.11 µM (inactive) | 13.4 µM (inactive) | 13.2 µM (inactive) | 3.85 µM (inactive) | 3.31 µM (inactive) | 6.75 µM (inactive) | – | – | 6.9 µM (inactive) | 10.4 µM (inactive) | 5.02 µM (inactive) | 15.7 µM (inactive) | 3.74 µM (inactive) | 32.4 µM (inactive) | 16.6 µM (inactive) | 7.19 µM (inactive) | 1.9 µM (inactive) | 11.8 µM (inactive) | 3.86 µM (inactive) | – |
